Experimental data published in patent publication US9132130B2, “Purine derivative and antitumor agent using same” (ZENYAKU KOGYO KABUSHIKI KAISHA, priority 2009, dated 2015).
Where a name gives a salt, the structure may show the parent alone.

Legend:
Assay type in all cases: cell-based
[1] = system: B16F10 cells (mouse melanoma [malignant melanoma] cells); assay: in vitro antitumor activity test, B16F10 cells, XTT colorimetry; settings: B16-F10, cultured 72 hours
Protocol: (§1) WiDr cells (human colon cancer cells) subcultured in a culture medium composed of a MEM medium added with 10% fetal bovine serum, 25 mM HEPES and 0.1 mg/ml kanamycin under the conditions of 37° C. and 5% carbon dioxide gas were made into single floating cells by treating with trypsin/EDTA, and a single cell suspension of 3×10^4 cells per 1 ml was prepared using the MEM medium (added with 10% fetal bovine serum, 25 mM HEPES and 0.1 mg/ml kanamycin). After dissolving the test compounds in DMSO, they were diluted in a RPMI 1640 medium (added with 10% fetal bovine serum, 25 mM HEPES and 0.1 mg/ml kanamycin) and prepared so that the concentrations were 2.0×10^−9 to 2.0×10^−4 M.
(§2) 0.1 ml of the cell suspension was placed into each well of 96-well microplates, cultured for 24 hours to allow the cells to adhere to the microplates, then 0.1 ml of the sample solutions were added, and cultured for 72 hours at 37° C. in 5% carbon dioxide gas.
(§3) Afterwards, the level of growth inhibition at various sample concentrations was obtained using XTT colorimetry, and concentrations at which growth was inhibited by 50% (GI50 values [μM]) were calculated.
(§4) In addition, cells other than WiDr cells that were used, and the condition for preparing each single cell suspension were as follows.
B16F10 cells (mouse melanoma [malignant melanoma] cells): 1×10^4 cells/ml

[2] = system: WiDr cells (human colon cancer cells); assay: in vitro antitumor activity test, WiDr cells, XTT colorimetry; settings: cultured 72 hours
Protocol: as §1, §2, §3

[3] = system: PC-3 cells (human prostate cancer cells); assay: in vitro antitumor activity test, PC-3 cells, XTT colorimetry; settings: PC-3 human prostate cancer cells, cultured 72 hours
Protocol: as §1, §2, §3, §4
PC-3 cells (human prostate cancer cells): 2×10^4 cells/ml

[4] = system: A549 cells (human lung cancer cells); assay: in vitro antitumor activity test, A549 cells, XTT colorimetry; settings: cultured 72 hours
Protocol: as §1, §2, §3, §4
A549 cells (human lung cancer cells): 2×10^4 cells/ml

[5] = system: P388 cells (mouse leukemia cells); assay: in vitro antitumor activity test, P388 cells, XTT colorimetry; settings: cultured 72 hours
Protocol: P388 cells (mouse leukemia cells) passaged in the abdominal cavity of DBA/2 mice were extracted with ascitic fluid, and cultured in a RPMI 1640 medium (added with 10% fetal bovine serum, 25 mM HEPES, 0.1 mg/ml kanamycin and 5 μM 2-hydroxyethyldisulfide) at 37° C. in 5% carbon dioxide gas. After culturing for 16 hours, floating P388 cells were made into a single cell suspension of 4×10^4 cells per 1 ml using the same RPMI 1640 medium as given above. The test substances were dissolved in DMSO, then diluted in a RPMI 1640 medium (added with 10% fetal bovine serum, 25 mM HEPES and 0.1 mg/ml kanamycin) and prepared so that the concentrations were 2.0×10^−9 to 2.0×10^−4 M.
0.1 ml of the cell suspension was placed into each well of 96-well microplates, then 0.1 ml of the sample solutions were added, and cultured for 72 hours at 37° C. in 5% carbon dioxide gas.
as §3

SMILES | GI50 [1] [nM] | GI50 [2] [nM] | GI50 [3] [nM] | GI50 [4] [nM] | GI50 [5] [nM]
CCc1nc2c(N3CCOCC3)nc(SCc3ccc(OC)c(Cl)c3)nc2n1C [Compound 16, 2-(3-chloro-4-methoxybenzylsulfanyl)-8-ethyl-9-methyl-6-morpholino-9H-purine] | 1680 | 1220 | 910 | 1750 | 850
CCc1ccc(CSc2nc(N3CCOCC3)c3nc(CC)n(C)c3n2)cc1N [Compound 90, 2-(3-amino-4-ethylbenzylsulfanyl)-8-ethyl-9-methyl-6-morpholino-9H-purine] | 1100 | 1370 | 1730 | 720 | 520
COc1ccc(CSc2nc(-c3cn[nH]c3)c3ncn(C)c3n2)cc1 [Compound 170, 2-(4-methoxybenzylsulfanyl)-9-methyl-6-(pyrazol-4-yl)-9H-purine] | 70 | < 40 | 50 | < 40 | < 40
CNc1nc(SCc2ccc(OC)c(N)c2)nc2c1ncn2C [Compound 45, 2-(3-amino-4-methoxybenzylsulfanyl)-9-methyl-6-methylamino-9H-purine] | 280 | 830 | 150 | 120 | 90
COc1ccc(CSc2nc(N3CC=CC3)c3ncn(C)c3n2)cc1 [Compound 130, 2-(4-methoxybenzylsulfanyl)-9-methyl-6-(3-pyrrolin-1-yl)-9H-purine] | 630 | 280 | 540 | 400 | 250
CCN(C)c1nc(SCc2ccc(OC)cc2)nc2c1ncn2C [Compound 75, 6-(N-ethyl-N-methylamino)-2-(4-methoxybenzylsulfanyl)-9-methyl-9H-purine] | 380 | 380 | 560 | 520 | 380
COc1ccc(CSc2nc(N3C=COCC3)c3ncn(C)c3n2)cc1N [Compound 150, 2-(3-amino-4-methoxybenzylsulfanyl)-6-(2,3,-dihydro-[1,4]oxadin-4-yl)-9-methyl-9H-purine] | 300 | 780 | 150 | 150 | 110
COc1ccc(CSc2nc(N(C)OC)c3ncn(C)c3n2)cc1F [Compound 137, 2-(3-fluoro-4-methoxybenzylsulfanyl)-6-(N-methoxy-N-methylamino)-9-methyl-9H-purine] | 100 | 70 | 60 | 50 | 60
CNc1nc(SCc2ccc(OC)cc2)nc2c1ncn2C [Compound 26, 2-(4-methoxybenzylsulfanyl)-9-methyl-6-methylamino-9H-purine] | 340 | 80 | 110 | 110 | 70
CCc1nc2c(N3CCOCC3)nc(SC(c3ccccc3)c3ccccc3)nc2n1C [Compound 100, 2-benzhydrylsulfanyl-8-ethyl-9-methyl-6-morpholino-9H-purine] | 4630 | 6110 | 150 | 3900 | 3290
CCc1nc2c(N3CCOCC3)nc(SCc3ccc(OC)c(NC(=O)COC)c3)nc2n1C [Compound 63, 8-ethyl-2-(3-methoxyacetylamino-4-methoxybenzylsulfanyl)-9-methyl-6-morpholino-9H-purine] | 1900 | 3300 | 870 | 1600 | 1500
CCc1nc2c(N3CCOCC3)nc(SCc3ccc(OC)c(NC(=O)CN)c3)nc2n1C [Compound 28, 2-[3-(2-aminoacetylamino)-4-methoxybenzylsulfanyl]-8-ethyl-9-methyl-6-morpholino-9H-purine hydrochloride] | 1140 | 1200 | 990 | 900 | 810
COc1ccc(CNc2nc(N3CCOCC3)c3ncn(C)c3n2)cc1 [Compound B, reference compound] | > 10000 | > 10000 | > 10000 | > 10000 | > 10000
CCc1nc2c(N3CCOCC3)nc(SCc3ccc(OC)c(Br)c3)nc2n1C [Compound 78, 2-(3-bromo-4-methoxybenzylsulfanyl)-8-ethyl-9-methyl-6-morpholino-9H-purine] | 1200 | 1100 | 360 | 1100 | 910
COc1ccc(CSc2nc(N3CCOCC3)c3ncn(C)c3n2)cc1F [Compound 83, 2-(3-fluoro-4-methoxybenzylsulfanyl)-9-methyl-6-morpholino-9H-purine] | 180 | 140 | 180 | 150 | 90
C/C=C/c1nc(SCc2ccc(OC)cc2)nc2c1ncn2C [Compound 163, 2-(4-methoxybenzylsulfanyl)-9-methyl-6-(1-trans-propenyl)-9H-purine] | 540 | 510 | 870 | 670 | 280
CCc1nc2c(N(C)C)nc(SCc3ccc(OC)c(N)c3)nc2n1C [Compound 23, 2-(3-amino-4-methoxybenzylsulfanyl)-6-dimethylamino-8-ethyl-9-methyl-9H-purine] | 500 | 440 | 130 | 250 | 230
COc1ccc(CSc2nc(-n3ccnc3)c3ncn(C)c3n2)cc1 [Compound 110, 6-(imidazol-1-yl)-2-(4-methoxybenzylsulfanyl)-9-methyl-9H-purine] | 1430 | 790 | 1400 | 950 | 470
CNc1nc(SCc2ccc(OC)c(F)c2)nc2c1ncn2C [Compound 73, 2-(3-fluoro-4-methoxybenzylsulfanyl)-6-methylamino-9-methyl-9H-purine] | < 40 | < 40 | < 40 | < 40 | < 40
CCNc1nc(SCc2ccc(OC)c(F)c2)nc2c1ncn2C [Compound 91, 6-ethylamino-2-(3-fluoro-4-methoxybenzylsulfanyl)-9-methyl-9H-purine] | 140 | 90 | 340 | 140 | 90
COc1ccc(CSc2nc(-c3ccco3)c3ncn(C)c3n2)cc1 [Compound 167, 6-(2-furyl)-2-(4-methoxybenzylsulfanyl)-9-methyl-9H-purine] | 2470 | 1750 | 1800 | 1490 | 1870
CCc1ccc(CSc2nc(N3CCOCC3)c3nc(CC)n(C)c3n2)cc1 [Compound 12, 8-ethyl-2-(4-ethylbenzylsulfanyl)-9-methyl-6-morpholino-9H-purine] | 3910 | 1240 | 850 | 1890 | 1250
COc1ccc(CSc2nc(N3C=COCC3)c3ncn(C)c3n2)cc1F [Compound 152, 6-(2,3-dihydro-[1,4]oxadin-4-yl)-2-(3-fluoro-4-methoxybenzylsulfanyl)-9-methyl-9H-purine] | < 40 | < 40 | < 40 | < 40 | < 40
CNc1nc(SCc2ccc(OC)c(C#N)c2)nc2c1ncn2C [Compound 72, 2-(3-cyano-4-methoxybenzylsulfanyl)-6-methylamino-9-methyl-9H-purine] | < 40 | < 40 | < 40 | < 40 | < 40
COc1ccc(CSc2nc(-c3c(C)noc3C)c3ncn(C)c3n2)cc1 [Compound 169, 6-(3,5-dimethylisoxazol-4-yl)-2-(4-methoxybenzylsulfanyl)-9-methyl-9H-purine] | 110 | 80 | 70 | < 40 | < 40
COc1ccc(CSc2nc(N3CCOCC3)c3ncn(C)c3n2)cc1C#N [Compound 80, 2-(3-cyano-4-methoxybenzylsulfanyl)-9-methyl-6-morpholino-9H-purine] | 210 | 160 | 70 | 140 | 70
